The test system of data set [1] is TNF-α-induced COX-2 expression in human HT-29 colon cancer cells. The note with it: 2 h pre-treatment, 10 ng/mL TNF-α 24 h, HT-29, FIG. 7. How it is done:
Cells were pre-treated for 2 h with indicated compounds in serum-free medium before the addition of 10 ng/mL TNF-α for 24 h. Cells were lysed and the levels protein expression of COX-2 were monitored by immunoblotting. […] For each sample, the COX-2 level was corrected for GAPDH (a loading control) and normalized to those seen in TNF-α control (value=100%).
Cells were pre-treated for 2 h with indicated compounds in serum-free medium before the addition of 10 ng/mL TNF-α for 24 h. Cells were lysed and the protein expression levels of COX-2 were monitored by immunoblotting. […] For each sample, the COX-2 level was corrected for GAPDH (a loading control) and normalized to those seen in TNF-α control (value=100%).

Data set [2] can be described thus: Stability at room temperature followed by absorbance over time. The note with it: FIG. 11. An excerpt: FIG. 11 is a graph showing absorbance of Curcumin conjugates and free Curcumin.
Data set [3] deals with human HT-29 colorectal cancer cells. The data set is described as follows: Time-course uptake by flow cytometry (cell-associated fluorescence). The class given is cell-based. The note with it: 5 μM, 37° C., HT-29 cells, FIG. 4B. Here is the method: FIG. 4 is a series of charts illustrating higher and sustained uptake of KBC-201 (FIG. 4A). At the same concentration (5 μM), KBC-201 generates about half the fluorescence compared to free curcumin (Ex.: 488 nm, Em.: 530 nm) (FIG. 4B). Time-course uptake of KBC-201 (full line) and free curcumin (dotted line) in human HT-29 colorectal cancer cells. HT-29 cells were incubated at 37° C. with 5 μM of KBC-201 or curcumin at various times, trypsinized, washed, and cell-associated fluorescence uptake was quantified using a BD Accuri™ C6 flow cytometer.
(§1) The uptake of Curcumin conjugate or free Curcumin was measured as a function of time in human HT-29 colon cancer cells (FIG. 4). […] Indeed, the Curcumin conjugate (KBC-201) is less fluorescent by about 2-3 folds when compared to free Curcumin. […] The uptake of both KBC-201 and free Curcumin was next measured in the presence of Sortilin ligands (FIG. 5B). […] Taken together, data of the pharmacological inhibition using Sortilin ligands and the silencing of Sortlin expression confirm that the Curcumin conjugate is internalized via a Sortilin-dependent mechanism.
(In general: In flow cytometry, cells or beads pass a laser one at a time.)

Another data set deals with T1, Sortilin receptor (Homo sapiens, UniProt Q99523).
T1 construct: Sortilin-deficient (siSortilin) HT-29 colorectal cancer cells; endogenous in cells; host or cells: HT-29 human colorectal cancer cells
T1 sequence (Q99523 78-831): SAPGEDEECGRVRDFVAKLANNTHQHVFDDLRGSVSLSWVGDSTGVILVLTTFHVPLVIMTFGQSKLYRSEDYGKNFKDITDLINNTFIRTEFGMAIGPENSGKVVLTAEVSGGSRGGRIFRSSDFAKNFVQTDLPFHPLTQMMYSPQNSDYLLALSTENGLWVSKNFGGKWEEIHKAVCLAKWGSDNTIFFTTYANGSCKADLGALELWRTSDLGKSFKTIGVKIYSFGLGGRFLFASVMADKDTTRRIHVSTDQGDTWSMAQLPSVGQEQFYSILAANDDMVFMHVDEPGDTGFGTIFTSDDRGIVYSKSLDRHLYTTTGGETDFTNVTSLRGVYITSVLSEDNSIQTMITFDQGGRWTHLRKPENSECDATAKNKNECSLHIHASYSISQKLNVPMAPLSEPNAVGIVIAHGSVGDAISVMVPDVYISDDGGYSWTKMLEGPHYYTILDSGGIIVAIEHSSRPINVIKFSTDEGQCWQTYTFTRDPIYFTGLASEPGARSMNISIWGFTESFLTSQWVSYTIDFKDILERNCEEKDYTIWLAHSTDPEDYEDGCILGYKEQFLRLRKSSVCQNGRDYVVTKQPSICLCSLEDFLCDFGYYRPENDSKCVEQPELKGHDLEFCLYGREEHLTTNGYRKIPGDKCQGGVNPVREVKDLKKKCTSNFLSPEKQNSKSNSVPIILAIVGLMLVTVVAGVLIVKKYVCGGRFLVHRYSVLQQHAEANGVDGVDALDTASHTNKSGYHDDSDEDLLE
The data set is described as follows: Sortilin-mediated uptake in HT-29 cells (siRNA silencing and competition with Sortilin ligands). The class given is cell-based. Particulars: 5 μM; for Uptake when Sortilin expression is reduced by siRNA: 2 h, 37° C., siSortilin vs siScrambled HT-29 cells, FIG. 5A; for Uptake in the presence of Sortilin ligands: excess free peptide (50 μM), neurotensin (10 μM) or progranulin (1 nM), HT-29 cells, FIG. 5B. How it is done: FIG. 5 is a series of charts showing Sortilin-mediated uptake of KBC-201 in human colorectal cancer cells, FIG. 5A) Uptake of 5 μM of KBC-201 or free curcumin were performed at 37° C. in control (siScrambled) or Sortilin-deficient (siSortilin) HT-29 colorectal cancer cells. After a 2 h incubation, cells were trypsinized to remove non-internalized products, washed 3-times with ice-cold PBS and cell-associated fluorescence was quantified using a BD Accuri™ C6 flow cytometer. […] Cell-associated fluorescence uptake was quantified using a BD Accuri™ C6 flow cytometer.
as §1

Data set [4] deals with T2, Human recombinant Sortilin chimera protein (Homo sapiens, UniProt Q99523).
T2 construct: unnamed fusion partner or tag ('chimera'); purchased R&D Systems 3154-ST
T2 sequence (Q99523 78-755 limits assumed): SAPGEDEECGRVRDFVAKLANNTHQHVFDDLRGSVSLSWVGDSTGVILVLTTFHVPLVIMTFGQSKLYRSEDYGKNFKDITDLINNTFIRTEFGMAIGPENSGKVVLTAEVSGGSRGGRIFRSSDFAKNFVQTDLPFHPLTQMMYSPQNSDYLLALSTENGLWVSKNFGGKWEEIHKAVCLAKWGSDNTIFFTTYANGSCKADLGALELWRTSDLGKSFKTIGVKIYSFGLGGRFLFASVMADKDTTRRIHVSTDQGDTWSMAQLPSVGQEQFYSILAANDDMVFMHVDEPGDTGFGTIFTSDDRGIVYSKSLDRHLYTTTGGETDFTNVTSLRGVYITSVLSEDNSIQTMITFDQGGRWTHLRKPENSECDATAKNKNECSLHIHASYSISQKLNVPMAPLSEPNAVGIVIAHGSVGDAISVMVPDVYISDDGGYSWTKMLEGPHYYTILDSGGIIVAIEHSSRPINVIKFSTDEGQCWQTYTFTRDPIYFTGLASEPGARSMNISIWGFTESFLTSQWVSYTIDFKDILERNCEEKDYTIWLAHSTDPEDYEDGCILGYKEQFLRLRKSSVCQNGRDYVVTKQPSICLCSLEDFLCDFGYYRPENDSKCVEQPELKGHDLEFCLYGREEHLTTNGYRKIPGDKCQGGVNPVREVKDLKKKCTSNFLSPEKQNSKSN
The data set is described as follows: Surface plasmon resonance (Biacore) interaction with immobilized Sortilin. The note with it: SPR; for Affinity for Sortilin, in words: comparison between peptides and Sortilin ligands. The format is binding. The source says: FIG. 12 is schematic representation of real time interaction analysis using Surface Plasmon Resonance (SPR) and a Biacore instrument.
Further tests were made so as to investigate interaction of the peptide compounds of the present disclosure with Sortilin. Such tests were made using real-time surface plasmon resonance (Biacore) (see FIG. 12).
Background: SPR reads the build-up and loss of mass on a sensor chip optically.

Data set [5] deals with TNF-α-induced IκB phosphorylation in human HT-29 colon cancer cells. As to the kind of experiment: Inhibition of TNF-α-induced IκB phosphorylation in HT-29 cells. The format is cell-based. Particulars: 24 h pre-treatment, 100 ng/mL TNF-α 5 min, HT-29, FIG. 17; at a lower concentration than Curcumin. The source says: FIG. 8A) Immunodetection of IκB phosphorylation by TNF-α is shown.
One of the inflammatory pathways induced by TNF-α leads to the phosphorylation of IkB (FIG. 1), a key protein in inflammation. As expected, the addition of TNF-α to human HT-29 colon cancer cells triggered the phosphorylation of IkB (pIkB) (FIG. 8).
One of the inflammatory pathways induced by TNF-α leads to the phosphorylation IkB (see FIG. 1), a key protein in inflammation. It was observed that the addition of TNF-α to human HT-29 colon cancer cells triggered the phosphorylation of IkB (pIkB) (FIGS. 17A and 17B).

Data set [6] has as its system TNF-α-induced NFκB phosphorylation in human MDA-MB231 breast cancer cells. As to the kind of experiment: Inhibition of TNF-α-induced NFκB phosphorylation in MDA-MB231 cells. The format is cell-based. The note with it: 24 h pre-treatment, 100 ng/mL TNF-α 5 min, MDA-MB231, FIG. 18. The source says: FIG. 9A) Immunodetection of phosphorylated NFκB by TNF-α is shown.
FIGS. 9 and 10 are other examples of the Curcumin conjugate (KBC-201)'s effect on the TNF-α-induced signaling pathways in two other cancer cell models.
Results presented in FIGS. 18A and 18B show now that the peptide alone (KBP-201) can reduce the TNF-α-induced NFκB phosphorylation by about 30%.
In FIG. 18A, immunodetection of NFκB phosphorylation by TNF-α is shown.

Square brackets hold non-standard residues; d marks the D form. Peptide text beside a SMILES is read from it. Nle = CCCC[C@H](N)C(=O)O

For the compound “Acetyl-GVRAK(curcumin)AGVRN(Nle)FK(curcumin)SESY [KBC-106]”, in data set [1], the “Inhibition of TNFα-induced COX-2 expression, comparison of two conjugates” value is “more potent than free Curcumin”. Also, in data set [2], the “Stability (absorbance over time)” value is “more stable”.
Consider `COc1cc(/C=C/C(=O)CC(=O)/C=C/c2ccc(O)c(OC)c2)ccc1O` [Curcumin, reference compound], for which the “Uptake over time (cell-associated fluorescence)” value in data set [3] (listed as free Curcumin) was “transient and low intracellular accumulation”; in data set [3] (listed as free curcumin), “transient uptake”. The “Uptake when Sortilin expression is reduced by siRNA” value is reported as “unaffected” on Sortilin receptor (listed as free Curcumin) and “not that of free curcumin” at Sortilin receptor (listed as free curcumin). For the same compound, the “Uptake in the presence of Sortilin ligands” value is reported as “unaffected by none of them” on Sortilin receptor (listed as free Curcumin) and “not that of free curcumin” at Sortilin receptor (listed as free curcumin). In data set [2], the “Stability (absorbance over time)” value is reported as “decreased more rapidly over time”.
In the case of `CCCC[C@H](NC(=O)[C@H](CC(N)=O)NC(=O)[C@H](CCCNC(=N)N)NC(=O)[C@@H](NC(=O)CNC(=O)[C@H](C)NC(=O)[C@H](CCCCN)NC(=O)[C@H](C)NC(=O)[C@H](CCCNC(=N)N)NC(=O)[C@@H](NC(=O)CNC(C)=O)C(C)C)C(C)C)C(=O)N[C@@H](Cc1ccccc1)C(=O)N[C@@H](CCCCN)C(=O)N[C@@H](CO)C(=O)N[C@@H](CCC(=O)O)C(=O)N[C@@H](CO)C(=O)N[C@@H](Cc1ccc(O)cc1)C(=O)O` [KBP-106] (Ac-GVRAKAGVRN[Nle]FKSESY-OH; C-terminus assumed), in data set [4], the “Affinity for Sortilin, in words” value is given as “better affinity for Sortilin than Neurotensin”.
As for `CC(=O)N[C@@H](Cc1ccc(O)cc1)C(=O)N[C@@H](CCCCN)C(=O)N[C@@H](CO)C(=O)N[C@@H](CC(C)C)C(=O)N[C@@H](CCCNC(=N)N)C(=O)N[C@@H](CCCNC(=N)N)C(=O)N[C@@H](CCCCN)C(=O)N[C@@H](C)C(=O)N1CCC[C@H]1C(=O)N[C@@H](CCCNC(=N)N)C(=O)N[C@@H](Cc1c[nH]c2ccccc12)C(=O)N[C@@H](CC(=O)O)C(=O)N[C@@H](C)C(=O)N1CCC[C@H]1C(=O)N[C@@H](CC(C)C)C(=O)N[C@@H](CCCNC(=N)N)C(=O)N[C@@H](CC(=O)O)C(=O)N1CCC[C@H]1C(=O)N[C@@H](C)C(=O)N[C@@H](CC(C)C)C(=O)N[C@@H](CCCNC(=N)N)C(=O)N[C@@H](CCC(N)=O)C(=O)N[C@@H](CC(C)C)C(=O)N[C@@H](CC(C)C)C(=O)O` [KBP-201], the “Affinity for Sortilin, in words” value in data set [4] is “better affinity for Sortilin than Neurotensin”; in data set [4] (listed as KB-P201), “better affinity”. Moreover, the “Reduction of TNF-α-induced phosphorylation of IkB, maximal effect” value in data set [5] came to 40%. Also, the “Reduction of TNF-α-induced NFκB phosphorylation” value in data set [6] is recorded as “about 30%”.
Turning to “RAP: receptor-associated protein, a Sortilin ligand [reference compound]”, the Kd (in general, the constant that tells how readily two partners part at equilibrium) in data set [4] (Sortilin immobilized on CM5 chip, KD calculated with Bia Evaluation software from sensorgrams of FIGS. 13-16, read-out: Affinity (KD)) is 4.2 nM.

Source of the values: patent publication US20200157151A1, “PEPTIDE COMPOUNDS, CONJUGATE COMPOUNDS AND USES THEREOF FOR TREATING INFLAMMATORY DISEASES” (TRANSFERT PLUS, S.E.C., priority 2017, published 2020).
